From patent US11932657B2, “Heterocyclic compound” (priority 2018, dated 2024)

Legend:
[1] = tested on: immortalized megakaryocyte line (SeV2-MKCL); assay: Platelet production: static culturing of immortalized megakaryocyte line; type: cell-based; settings: compound final concentration 0.1 μM, static culturing 6 to 7 days, control (DMSO) set to 1; platelets = CD41, CD42b and CD42a-positive cells
Summary of the method: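 SeV2-MKCL cells, washed free of doxycycline to stop forced expression, seeded at 1×10^5 cells/mL in IMDM-based medium with compound (final 0.1 μM) or DMSO, static culture 6–7 days, 37° C., 5% CO2. CD41/CD42a/CD42b-positive platelets counted by bead-corrected flow cytometry; platelets per megakaryocyte expressed as fold over DMSO control.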

[2] = target: T1, aryl hydrocarbon receptor (AhR) (Homo sapiens, UniProt P35869); assay: AhR reporter gene assay (aryl hydrocarbon receptor antagonist activity, DRE-Luc HepG2 cells, TCDD-stimulated luciferase); type: cell-based
T1 construct: DRE-Luc HepG2 cells subcultured in a 225 cm^2 flask; endogenous in cells; host or cells: HepG2 (ATCC), stably transfected with the reporter hCYP1A1/pGL4.27 (DRE-Luc HepG2)
T1 sequence (P35869 11-848): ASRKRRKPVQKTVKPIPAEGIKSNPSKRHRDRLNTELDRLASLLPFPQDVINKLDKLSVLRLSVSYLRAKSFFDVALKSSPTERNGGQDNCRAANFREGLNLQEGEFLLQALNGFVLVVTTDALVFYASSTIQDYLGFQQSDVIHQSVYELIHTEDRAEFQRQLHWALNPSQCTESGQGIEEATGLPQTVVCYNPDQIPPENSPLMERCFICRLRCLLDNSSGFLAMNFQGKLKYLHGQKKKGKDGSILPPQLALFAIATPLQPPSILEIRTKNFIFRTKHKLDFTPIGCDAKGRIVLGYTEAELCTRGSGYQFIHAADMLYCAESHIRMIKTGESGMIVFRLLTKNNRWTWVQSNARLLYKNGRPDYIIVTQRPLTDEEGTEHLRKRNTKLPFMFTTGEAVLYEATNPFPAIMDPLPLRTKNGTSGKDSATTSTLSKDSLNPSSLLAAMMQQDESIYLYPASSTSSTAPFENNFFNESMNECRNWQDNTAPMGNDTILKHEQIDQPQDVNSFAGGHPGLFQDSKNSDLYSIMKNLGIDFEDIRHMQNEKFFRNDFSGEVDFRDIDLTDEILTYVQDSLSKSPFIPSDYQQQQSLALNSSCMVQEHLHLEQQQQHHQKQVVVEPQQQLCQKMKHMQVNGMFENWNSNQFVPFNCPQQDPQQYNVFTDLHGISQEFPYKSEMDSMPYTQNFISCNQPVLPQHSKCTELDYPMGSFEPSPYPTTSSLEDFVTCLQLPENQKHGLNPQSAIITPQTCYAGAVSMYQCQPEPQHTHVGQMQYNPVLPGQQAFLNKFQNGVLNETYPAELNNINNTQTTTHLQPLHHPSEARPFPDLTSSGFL
Summary of the method: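 HepG2 cells stably carrying a human CYP1A1 promoter/DRE-driven luciferase reporter were pretreated with compound for 24 h at 37°C. TCDD (5×10^−10 M in the added solution) was then added for a further 24 h. Firefly luciferase luminescence was read as the measure of antagonism.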

SMILES	Static (vs veh): fold increase of platelet production efficiency (PLT/MK) [1]	IC50 [2]
CN(C)C(=O)Cc1cccc(-c2cc(CCNc3nc(-c4cncc(F)c4)nc4c3nc3n4C(C)(C)CO3)ccc2O)c1 [Example 79]	2.9	6.6 nM
Cc1cncc(-c2nc(NCCc3ccc(O)c(-c4ccc(F)cc4)c3)c3nc4n(c3n2)C(C)(C)CO4)c1 [Example 25]	5.7	4.4 nM
Fc1cncc(-c2nc(NCCc3c[nH]c4ccccc34)c3nc4n(c3n2)CCCS4)c1 [Example 109]	7.8	11 nM
CC1(C)COc2nc3c(NCCc4c[nH]c5ccccc45)nc(-c4cccc(F)c4F)nc3n21 [Example 86]	4.4	21 nM
CC1(C)COc2nc3c(NCCc4c[nH]c5ccccc45)nc(-c4cccnc4)nc3n21 [Example 94]	2.6	39 nM
COc1cccc(-c2cc(CCNc3nc(-c4cncc(F)c4)nc4c3nc3n4C(C)(C)CO3)ccc2O)c1 [Example 13, 4-[2-[[2-(5-fluoropyridin-3-yl)-8,8-dimethyl-7H-purino[8,9-b][1,3]oxazol-4-yl]amino]ethyl]-2-(3-methoxyphenyl)phenol]	4.7	29 nM
C[C@@H]1CSc2nc3c(NCCc4ccc(O)c(-c5ccccc5F)c4)nc(-c4cncc(C#N)c4)nc3n21 [Example 39]	4.3	1.2 nM
Cc1cncc(-c2nc(NCCc3ccc(O)c(-c4cccc(F)c4)c3)c3nc4n(c3n2)C(C)(C)CO4)c1 [Example 24]	7.7	3.9 nM
CC1(C)COc2nc3c(NCCc4ccc(O)c(-c5c(F)cccc5F)c4)nc(-c4cncc(C#N)c4)nc3n21 [Example 45]	2.4	11 nM
Cc1cncc(-c2nc(NCCc3ccc(O)c(-c4cccc(C#N)c4F)c3)c3nc4n(c3n2)C(C)(C)CO4)c1 [Example 68]	3.2	2.8 nM
CC1(C)COc2nc3c(NCCc4ccc(O)c(-c5ccc(F)cc5F)c4)nc(-c4cncc(F)c4)nc3n21 [Example 42]	4.8	6.1 nM
CC1(C)CSc2nc3c(NCCc4ccc(O)c(-c5ccccc5F)c4)nc(-c4ccc5nccn5c4)nc3n21 [Example 52]	5.3	1.8 nM
Cc1cncc(-c2nc(NCCc3ccc(O)c(-c4ccccc4)c3)c3nc4n(c3n2)C(C)(C)CO4)c1 [Example 22]	7.3	9.8 nM
CC1(C)COc2nc3c(NCCc4ccc(O)c(-c5cccc(Cl)c5)c4)nc(-c4cncc(F)c4)nc3n21 [Example 6]	3.7	10 nM
CC1(C)CSc2nc3c(NCCc4ccc(O)c(-c5ccccc5F)c4)nc(-c4cncc(F)c4)nc3n21 [Example 8]	5.1	0.11 nM
COc1ccccc1-c1cc(CCNc2nc(-c3cncc(F)c3)nc3c2nc2n3C(C)(C)CO2)ccc1O [Example 41]	7.0	10 nM
C[C@@H]1CSc2nc3c(NCCc4ccc(O)c(-c5ccccc5)c4)nc(-c4cncc(F)c4)nc3n21 [Example 49]	5.5	0.36 nM
CC1(C)COc2nc3c(NCCc4c[nH]c5ccccc45)nc(-c4ccc5ncnn5c4)nc3n21 [Example 111]	7.0	40 nM
CC1(C)COc2nc3c(NCCc4ccc(O)c(-c5ccc(C#N)cc5)c4)nc(-c4cncc(F)c4)nc3n21 [Example 18]	7.3	6.9 nM
C[C@@H]1COc2nc3c(NCCc4ccc(O)c(-c5cncc(C#N)c5)c4)nc(-c4cncc(F)c4)nc3n21 [Example 77]	3.5	9.2 nM
C[C@@H]1CSc2nc3c(NCCc4ccc(O)c(-c5ccccc5)c4)nc(-c4cncc(C#N)c4)nc3n21 [Example 50]	6.6	0.7 nM
CCc1cccc(-c2cc(CCNc3nc(-c4cncc(F)c4)nc4c3nc3n4C(C)(C)CO3)ccc2O)c1 [Example 15]	11	5.5 nM
Cc1cncc(-c2cc(CCNc3nc(-c4cncc(F)c4)nc4c3nc3n4C(C)(C)CS3)ccc2O)c1 [Example 73]	7.9	7.3 nM
CC1(C)COc2nc3c(NCCc4ccc(O)c(-c5cccc(C#N)c5)c4)nc(-c4cncc(C(F)F)c4)nc3n21 [Example 62, 3-[5-[2-[[2-[5-(difluoromethyl)pyridin-3-yl]-8,8-dimethyl-7H-purino[8,9-b][1,3]oxazol-4-yl]amino]ethyl]-2-hydroxyphenyl]benzonitrile]	5.1	1.9 nM
Cc1cncc(-c2cc(CCNc3nc(-c4cncc(F)c4)nc4c3nc3n4C(C)(C)CO3)ccc2O)c1 [Example 72]	6.8	9.8 nM
CC1(C)CSc2nc3c(NCCc4ccc(O)c(-c5cncc(C#N)c5)c4)nc(-c4cncc(F)c4)nc3n21 [Example 76]	2.4	5.7 nM
CC1(C)COc2nc3c(NCCc4ccc(O)c(-c5ccccc5F)c4)nc(-c4cncc(F)c4)nc3n21 [Example 2, 2-(2-fluorophenyl)-4-[2-[[2-(5-fluoropyridin-3-yl)-8,8-dimethyl-7H-purino[8,9-b][1,3]oxazol-4-yl]amino]ethyl]phenol]	5.6	9.5 nM
CC1(C)COc2nc3c(NCCc4ccc(O)c(-c5cccc(S(C)(=O)=O)c5)c4)nc(-c4cncc(F)c4)nc3n21 [Example 78]	4.3	3.9 nM
CC1(C)COc2nc3c(NCCc4ccc(O)c(-c5ccc(Cl)cc5)c4)nc(-c4cncc(F)c4)nc3n21 [Example 7]	7.3	9.1 nM
